Measurements: ChEMBL document CHEMBL1201862, “PubChem BioAssay data set” (2004)
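Test compounds were applied to cells in 96-well plates for 48 hours at 5 doses. GI50: concentration for 50% inhibition of growth.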 Active and inactive are the calls of the source. No stated cut-off is given here; in the data, active = GI50 up to about 1.1 µM and inactive = higher.

What was measured:
Experiment in all cases: NCI tumour cell line growth inhibition, 48 h
[1] = system: 786-0
[2] = system: A498
[3] = system: A549
[4] = system: ACHN
[5] = system: CAKI-1
[6] = system: CCRF-CEM
[7] = system: COLO 205
[8] = system: DLD-1
[9] = system: DMS-114
[10] = system: EKVX
[11] = system: HCC 2998
[12] = system: HCT-116
[13] = system: HCT-15
[14] = system: HL-60
[15] = system: HOP-18
[16] = system: HOP-62
[17] = system: HOP-92
[18] = system: HT-29
[19] = system: IGROV-1
[20] = system: K562
[21] = system: KM-20L2
[22] = system: KM12
[23] = system: LOX IMVI
[24] = system: LXFL 529
[25] = system: M14
[26] = system: M19-MEL
[27] = system: MOLT-4
[28] = system: Malme-3M
[29] = system: NCI-H226
[30] = system: NCI-H23
[31] = system: NCI-H460
[32] = system: NCI-H522
[33] = system: OVCAR-3
[34] = system: OVCAR-5
[35] = system: OVCAR-8
[36] = system: RPMI-8226
[37] = system: RXF 393
[38] = system: RXF 631
[39] = system: SF-268
[40] = system: SF-295
[41] = system: SF-539
[42] = system: SK-MEL-28
[43] = system: SK-MEL-5
[44] = system: SK-OV-3
[45] = system: SN12C
[46] = system: SNB-19
[47] = system: SNB-75
[48] = system: SR
[49] = system: SW-620
[50] = system: TK-10
[51] = system: U-251
[52] = system: UACC-257
[53] = system: UACC-62
[54] = system: UO-31
[55] = system: XF498
[56] = system: DMS-273
[57] = system: OVCAR-4
[58] = system: SK-MEL-2
[59] = system: SNB-78

COc1ccc(C(=O)CC2=Nc3nnc(CCCCCCCc4nnc5n4C(=O)C(CC(=O)c4ccc(OC)cc4)=N5)n3C2=O)cc1
GI50 [1]: > 100 µM (inactive)
GI50 [2]: > 100 µM (inactive)
GI50 [3]: > 100 µM (inactive)
GI50 [4]: > 100 µM (inactive)
GI50 [5]: > 100 µM (inactive)
GI50 [6]: > 100 µM (inactive)
GI50 [7]: > 100 µM (inactive)
GI50 [8]: > 100 µM (inactive)
GI50 [9]: > 100 µM (inactive)
GI50 [10]: > 100 µM (inactive)
GI50 [11]: > 100 µM (inactive)
GI50 [12]: > 100 µM (inactive)
GI50 [13]: > 100 µM
GI50 [14]: > 100 µM (inactive)
GI50 [15]: > 100 µM (inactive)
GI50 [16]: > 100 µM (inactive)
GI50 [17]: > 100 µM (inactive)
GI50 [18]: > 100 µM (inactive)
GI50 [19]: > 100 µM (inactive)
GI50 [20]: > 100 µM (inactive)
GI50 [21]: > 100 µM (inactive)
GI50 [22]: > 100 µM (inactive)
GI50 [23]: > 100 µM (inactive)
GI50 [24]: > 100 µM (inactive)
GI50 [25]: > 100 µM (inactive)
GI50 [26]: > 100 µM (inactive)
GI50 [27]: > 100 µM (inactive)
GI50 [28]: > 100 µM (inactive)
GI50 [29]: > 100 µM (inactive)
GI50 [30]: > 100 µM (inactive)
GI50 [31]: > 100 µM (inactive)
GI50 [32]: > 100 µM (inactive)
GI50 [33]: > 100 µM (inactive)
GI50 [34]: > 100 µM (inactive)
GI50 [35]: > 100 µM (inactive)
GI50 [36]: > 100 µM (inactive)
GI50 [37]: > 100 µM (inactive)
GI50 [38]: > 100 µM (inactive)
GI50 [39]: > 100 µM (inactive)
GI50 [40]: > 100 µM (inactive)
GI50 [41]: > 100 µM (inactive)
GI50 [42]: > 100 µM (inactive)
GI50 [43]: > 100 µM (inactive)
GI50 [44]: > 100 µM (inactive)
GI50 [45]: > 100 µM (inactive)
GI50 [46]: > 100 µM (inactive)
GI50 [47]: 31.6 µM (inactive)
GI50 [48]: > 100 µM (inactive)
GI50 [49]: > 100 µM (inactive)
GI50 [50]: > 100 µM (inactive)
GI50 [51]: > 100 µM (inactive)
GI50 [52]: > 100 µM (inactive)
GI50 [53]: > 100 µM (inactive)
GI50 [54]: > 100 µM (inactive)
GI50 [55]: > 100 µM (inactive)

OCC(CO)C1c2cccc3ccc4cccc1c4c23
GI50 [1]: > 100 µM (inactive)
GI50 [2]: > 100 µM (inactive)
GI50 [3]: > 100 µM (inactive)
GI50 [4]: > 100 µM (inactive)
GI50 [5]: > 100 µM (inactive)
GI50 [6]: > 100 µM (inactive)
GI50 [7]: > 100 µM (inactive)
GI50 [8]: > 100 µM (inactive)
GI50 [9]: > 100 µM (inactive)
GI50 [56]: > 100 µM (inactive)
GI50 [10]: 87.9 µM (inactive)
GI50 [12]: > 100 µM (inactive)
GI50 [14]: > 100 µM (inactive)
GI50 [15]: > 100 µM (inactive)
GI50 [16]: > 100 µM (inactive)
GI50 [17]: 80.9 µM (inactive)
GI50 [18]: > 100 µM (inactive)
GI50 [19]: > 100 µM (inactive)
GI50 [20]: > 100 µM (inactive)
GI50 [21]: > 100 µM (inactive)
GI50 [22]: > 100 µM (inactive)
GI50 [23]: > 100 µM (inactive)
GI50 [25]: > 100 µM (inactive)
GI50 [26]: > 100 µM (inactive)
GI50 [27]: > 100 µM (inactive)
GI50 [28]: > 100 µM (inactive)
GI50 [29]: 67.5 µM (inactive)
GI50 [30]: > 100 µM (inactive)
GI50 [31]: > 100 µM (inactive)
GI50 [33]: > 100 µM (inactive)
GI50 [57]: > 100 µM (inactive)
GI50 [34]: > 100 µM (inactive)
GI50 [35]: > 100 µM (inactive)
GI50 [36]: > 100 µM (inactive)
GI50 [37]: > 100 µM (inactive)
GI50 [38]: > 100 µM (inactive)
GI50 [39]: > 100 µM (inactive)
GI50 [40]: > 100 µM (inactive)
GI50 [41]: > 100 µM (inactive)
GI50 [42]: > 100 µM (inactive)
GI50 [58]: > 100 µM (inactive)
GI50 [43]: > 100 µM (inactive)
GI50 [44]: > 100 µM (inactive)
GI50 [45]: > 100 µM (inactive)
GI50 [46]: > 100 µM (inactive)
GI50 [47]: 54.1 µM (inactive)
GI50 [59]: > 100 µM (inactive)
GI50 [48]: > 100 µM (inactive)
GI50 [49]: > 100 µM (inactive)
GI50 [50]: > 100 µM (inactive)
GI50 [51]: > 100 µM (inactive)
GI50 [52]: > 100 µM (inactive)
GI50 [53]: > 100 µM (inactive)
GI50 [54]: 62.5 µM (inactive)
GI50 [55]: > 100 µM (inactive)
